Results on one compound are retold here after patent US10934258B2, “Materials for use in an aqueous organic redox flow battery” (Utah State University, priority 2016, dated 2021).

Series [1] can be described thus: RDE linear sweep voltammetry with Levich and Tafel analysis. In kind it is physicochemical. Particulars: 1.0 mM in 0.5 M NaCl. The method, then: Electrochemical RDE studies: All linear sweep voltammetry (LSV) studies were conducted using a Gamry 1000E potentiostat in a three-electrode configuration, a glassy carbon disk working electrode (5 mm Teflon encased glassy carbon disk, Pine Research Instrumentation) along with a glassy carbon counter electrode and a Ag/AgCl reference electrode same as used in CV studies. Before data collection, the disk electrode was prepared using the procedure described in the CV studies. The electrode was then rotated at from 300 to 2400 rpm with an increment of 300 rpm, which was controlled by a Pine MSR rotator system. LSV scans were recorded at a rate of 5 mV/s from 0.3 V to 0.8 V vs NHE. At each rotation rate, the LSV were recorded 3 times to ensure repeatability. The limiting currents (i.e. the mass transport-limited current intensity) were taken at 0.7 V vs NHE for FcNCl and plotted over the square root of the rotation rate (rad/s). The data were fitted to yield a straight Levich plot, with the slope defined by the Levich equation (equation 1 below), where n=1 for one electron process, Faraday's constant F=96485 C/mol, electrode area A=0.1935 cm^2, FcNCl concentration Co=1.0 mM, D is diffusion coefficient, kinematic viscosity n=0.009 cm^2/s for 0.5 M NaCl solution. The calculations yielded the diffusion coefficients of FcNCl as 3.25×10^−6 cm^2/s. A plot of overpotential versus log10(iK) was constructed for the LSV data collected at […] for FcNCl where iK is the kinetic current for the oxidation of FcNCl. […] Levich plot slope=0.620nFACOD^2/3v^−1/6 (equation 1) i0=FACOk0 (equation 2)
Electrochemical RDE studies: Linear sweep voltammetry (LSV) experiments were conducted using a Gamry 1000E potentiostat with a three-electrode system. A 5 mm rotating glassy carbon disk encased in Teflon served as the working electrode. A glassy carbon rod was used as the counter electrode. A Ag/AgCl wire served as the reference electrode. The working electrode was cleaned using the same method as in the CV experiments. During the experiments, the working electrode rotated from 300 rpm to 2400 rpm at increments of 300 rpm. Three scans at each rotation rate were collected to ensure accuracy. (NPr)2V: LSV scans were conducted at a rate of 5 mV/s from 0.1 V to −1.2 V versus NHE. The limiting currents (mass transport-limited current intensity) at each rotation rate were recorded at −0.57 V and −0.95 V versus NHE. […] The slopes of these fitted lines are defined by the Levich equation, Levich Plot Slope=0.620nFAC0D^2/3v^−1/6 (equation 1)
[…] Plots of overpotential versus log10(ik) were constructed from the 2400 rpm LSV, where ik is the kinetic current of each reduction of (NPr)2V. The x-intercept of the fitted Tafel plot represents the log of the exchange current i0 that is defined by: i0=FAC0k^0 (equation 2)
where F, A, and C0 are defined above, and k^0 represents the electron transfer rate constant.
(NPr)(SPr)V, (Me)(NPr)V, (SPr)2V, and [FcN^Et]Br: LSV scans were collected and analyzed using the same techniques described for (NPr)2V.

Series [2] in a line: Cyclic and square wave voltammetry (redox potentials). Type of series: physicochemical. Particulars: 4 mM in 0.5 M NaCl. The method, then: Electrochemical Cyclic voltammetry (CV) studies. All electrochemical CV experiments were carried out in 0.5 M NaCl electrolyte solutions. Cyclic voltammetry experiments were performed with a Gamry 1000E potentiostat. All potentials were referenced to NHE according to the known MV^2+/1+ redox couple (−0.45 V vs NHE). The working electrode (1 mm PEEK-encased glassy carbon, Cypress Systems EE040) was polished using Al2O3(BAS CF-1050, dried at 150° C. under vacuum) suspended in deionized H2O, then rinsed with deionized H2O and dried with an air flow. The reference electrode was a silver wire coated with a layer of AgCl and suspended in a solution of 0.5 M NaCl electrolyte. A glassy carbon rod (Structure Probe, Inc.) was used as the counter electrode.
Cyclic and square wave voltammetry studies: All experiments were conducted in an […], 0.5 M NaCl aqueous solution, and performed with a Gamry 1000E potentiostat. A 1 mm PEEK encased glassy carbon disk was used as the working electrode. The working electrode was polished with 0.05 micron Al2O3 powder and rinsed with deionized H2O. A glassy carbon rod was used as the counter electrode. A silver wire coated with AgCl and suspended in 3.0 M KCl electrolyte was used as the reference electrode.
The redox potentials were calculated directly versus MV which was derived from the Born-Haber method. This calculation predicts the redox potential of the viologen by comparing it to the experimentally determined potentials for MV. Square wave voltammetry was employed to most accurately measure E1/2 for the two reductions of viologen compounds (FIG. 42). The calculation of the theoretical redox potential vs MV can be simplified as shown below: […]

For series [3] the following is noted: known value, potential reference; cited from earlier work.
A short description of series [4]: Solubility by preparing a super-saturated solution. The method, then:
Chemicals and Materials. All chemicals were purchased from Aldrich or TCI, stored in an Argon glovebox, and used directly. Solubility of substituted ferrocene compounds was measured in water by preparing a super-saturated solution in a volumetric cylinder. Deionized water was purged overnight using N2 before use. All experimental operations were conducted under a N2 atmosphere. Conductivity of the electrolyte solutions was measured using a Mettler Toledo conductivity meter at R.T. NMR studies were conducted using a Bruker 500 MHz NMR spectrometer. UV-Vis was collected using an Ocean Optic spectrometer. Elemental analysis was done at Atlantic Microlab.
Calculation of theoretical energy density: The theoretical energy density of the FcNCl/MV AORFB was calculated using equation 3 below, where n is the number of electrons involved into the cell reaction, C is the concentration of active materials, F is Faraday constant, 26.8 Ah/mol, V is the cell voltage, and 2 represents a factor considering both volumes of anolyte and catholyte. Solubility of FcNCl and MV was measured in water respectively by preparing a super-saturated solution. Similar solubility tests in water were applied for ferrocenecarboxylic acid, 1-1′-ferrocenedicarboxilic acid, ferrocenecarboxylic acid, and 1,1′-ferrocenedimethanol. Energy density (Wh/L)=nCFV/2 (equation 3)

In the case of `C[n+]1ccc(-c2cc[n+](C)cc2)cc1` [MV, methyl viologen, reference compound], the “diffusion constant, D, first reduction” value in series [1] (Levich) was 2.57 × 10^−5 cm^2/s. In addition, the “electron transfer rate constant, k^0, first reduction” value in series [1] (Tafel) worked out at 0.00028 cm/s. For the same compound, in series [2] (first redox couple), the “Exp. E1/2, first reduction” value is on record as −0.45 V vs. NHE. Besides, the “Exp. E1/2, second reduction” value in series [2] (second redox couple) is listed as −0.76 V vs. NHE. The “MV^2+/1+ redox couple used as reference” value in series [3] is on record as −0.45 V vs NHE. Also, the “solubility in 2.0 M NaCl solution” value in series [4] (2.0 M NaCl solution) is “above 2.0 M”. Further, the “solubility in water, [C]” value in series [4] (in water) turned out to be 2500 mM.
